Test results taken from article PMC3819915, “Stable Suppression of Lactate Dehydrogenase Activity during Anoxia in the Foot Muscle of Littorina littorea and the Potential Role of Acetylation as a Novel Posttranslational Regulatory Mechanism” (Enzyme Research, 2013).

Key:
[1] = system: T1, LDH (D-lactate specific LDH, D-LDH) from foot muscle, aerobic control; assay: NADH absorbance at […] nm, microplate; format: biochemical, Littorina littorea; details: 25°C, control enzyme
T1 construct: native enzyme from foot muscle of aerobic control snails, partially purified on blue agarose; more acetylated than the 24 h anoxic form

[2] = system: T1, LDH (D-lactate specific LDH, D-LDH) from foot muscle, aerobic control; assay: NADH absorbance at […] nm, microplate; format: biochemical, Littorina littorea; details: assay direction not stated for this effector, presumably pyruvate-reducing (pH 6.5, 2.5 mM pyruvate, 0.25 mM NADH); 25°C; control enzyme

| IC50 [2] | Structure (SMILES) | also measured |
| --- | --- | --- |
|  | C[C@@H](O)C(=O)O [D-lactate] | Km ([1]; D-lactate-oxidizing direction, 25 mM KH2PO4 pH 9.5, 3 mM NAD+): 25 ± 2 mM |
| 23 ± 2 mM | Nc1ncnc2c1ncn2[C@@H]1O[C@H](COP(=O)(O)OP(=O)(O)O)[C@@H](O)[C@H]1O [ADP] |  |
|  | CC(=O)C(=O)O [pyruvate] | Km ([1]; 25 mM KH2PO4 pH 6.5, 0.25 mM NADH): 0.29 ± 0.01 mM |
| 13 ± 1 mM | Nc1ncnc2c1ncn2[C@@H]1O[C@H](COP(=O)(O)OP(=O)(O)OP(=O)(O)O)[C@@H](O)[C@H]1O [ATP] |  |
